What was measured:
[1] = biological target: T1, HDAC7 (Homo sapiens, UniProt Q8WUI4); experiment: Nur77 reporter gene assay in HeLa cells; assay type: cell-based; details: for activation at 10 µM: HeLa, 24 h, read-out: % of SAHA Response for HDAC7 at 10 μM (Nur77 reporter gene)
T1 construct: endogenous in cells; host or cells: HeLa
T1 sequence (Q8WUI4 1-952): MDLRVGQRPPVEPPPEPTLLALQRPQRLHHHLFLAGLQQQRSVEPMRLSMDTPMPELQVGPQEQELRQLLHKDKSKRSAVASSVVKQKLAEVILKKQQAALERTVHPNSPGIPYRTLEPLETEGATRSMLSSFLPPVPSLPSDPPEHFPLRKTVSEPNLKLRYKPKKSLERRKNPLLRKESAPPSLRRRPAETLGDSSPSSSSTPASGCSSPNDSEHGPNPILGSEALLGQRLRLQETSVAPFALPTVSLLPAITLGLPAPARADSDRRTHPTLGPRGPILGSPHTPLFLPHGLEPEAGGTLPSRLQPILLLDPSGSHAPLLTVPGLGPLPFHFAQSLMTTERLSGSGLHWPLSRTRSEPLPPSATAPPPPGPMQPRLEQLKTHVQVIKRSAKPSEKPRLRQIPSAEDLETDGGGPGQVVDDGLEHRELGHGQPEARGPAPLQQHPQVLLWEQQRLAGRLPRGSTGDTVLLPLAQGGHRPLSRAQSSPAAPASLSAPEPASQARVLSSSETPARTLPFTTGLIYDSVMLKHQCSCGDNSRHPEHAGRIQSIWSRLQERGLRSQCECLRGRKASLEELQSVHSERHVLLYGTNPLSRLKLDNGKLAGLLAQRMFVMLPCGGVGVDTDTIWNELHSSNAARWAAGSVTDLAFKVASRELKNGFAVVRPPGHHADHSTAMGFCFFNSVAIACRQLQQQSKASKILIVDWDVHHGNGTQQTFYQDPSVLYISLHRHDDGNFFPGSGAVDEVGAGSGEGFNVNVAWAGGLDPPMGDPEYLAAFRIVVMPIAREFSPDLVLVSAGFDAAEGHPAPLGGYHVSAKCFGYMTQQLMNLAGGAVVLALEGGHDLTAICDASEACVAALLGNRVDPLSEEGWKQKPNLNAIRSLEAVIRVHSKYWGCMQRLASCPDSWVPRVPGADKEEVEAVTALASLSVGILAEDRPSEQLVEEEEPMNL
Method: (§1) HDAC subtype selectivity inhibition assay of tested compounds was carried out by several reporter gene assays experiments. Briefly, HeLa cells were seeded in 96-well plates the day before transfection to give a confluence of 50-80%. Cells were transfected with one of reporter gene plasmids containing a promoter sequences or response elements upstream of a luciferase gene construct using FuGene6 transfection reagent according to the manufacturer's instructions (Roche). The promoter or response elements including p21-promoter, gdf11-promoter, serum response element (SRE), MEF-binding element were fused upstream to the luciferase gene reporter construct. For normalizing the transfection efficiency, a GFP expression plasmid was cotransfected. Cells were allowed to express protein for 24 hours followed by addition of individual compounds or the vehicle (DMSO). 24 hours later the cells were harvested, and the luciferase assays were performed using the luciferase assay kit according to the manufacturer's instructions (Promega). To normalize the data from the luciferase assays, β-galactosidase activity from transfected cells was measured using a kit (Promega) as instructed by the manufacturer.

[2] = test system: HDAC4/5; experiment: MEF2 reporter gene assay in HeLa cells; assay type: cell-based; details: relative to SAHA, 24 hours
Method: as §1

[3] = biological target: T2, HDAC3 (Homo sapiens, UniProt O15379); experiment: gdf11 reporter gene assay in HeLa cells; assay type: cell-based; details: for activation at 10 µM: HeLa, 24 h, read-out: % of SAHA Response for HDAC3 at 10 μM (gdf11 reporter gene)
T2 construct: endogenous in cells; host or cells: HeLa
T2 sequence (O15379 whole entry): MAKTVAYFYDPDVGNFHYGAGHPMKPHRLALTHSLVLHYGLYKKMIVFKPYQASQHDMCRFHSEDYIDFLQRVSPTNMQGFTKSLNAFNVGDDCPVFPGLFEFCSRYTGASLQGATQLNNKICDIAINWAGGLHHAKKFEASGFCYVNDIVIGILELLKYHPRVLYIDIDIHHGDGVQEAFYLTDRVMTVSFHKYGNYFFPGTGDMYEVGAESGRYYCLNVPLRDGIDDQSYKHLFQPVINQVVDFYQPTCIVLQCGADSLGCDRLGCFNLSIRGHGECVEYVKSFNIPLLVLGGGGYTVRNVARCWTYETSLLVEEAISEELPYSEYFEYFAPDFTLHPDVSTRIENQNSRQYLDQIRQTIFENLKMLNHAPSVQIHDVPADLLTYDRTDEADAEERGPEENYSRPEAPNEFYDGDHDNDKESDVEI
T2 sequence (Q9Y618 whole entry partner): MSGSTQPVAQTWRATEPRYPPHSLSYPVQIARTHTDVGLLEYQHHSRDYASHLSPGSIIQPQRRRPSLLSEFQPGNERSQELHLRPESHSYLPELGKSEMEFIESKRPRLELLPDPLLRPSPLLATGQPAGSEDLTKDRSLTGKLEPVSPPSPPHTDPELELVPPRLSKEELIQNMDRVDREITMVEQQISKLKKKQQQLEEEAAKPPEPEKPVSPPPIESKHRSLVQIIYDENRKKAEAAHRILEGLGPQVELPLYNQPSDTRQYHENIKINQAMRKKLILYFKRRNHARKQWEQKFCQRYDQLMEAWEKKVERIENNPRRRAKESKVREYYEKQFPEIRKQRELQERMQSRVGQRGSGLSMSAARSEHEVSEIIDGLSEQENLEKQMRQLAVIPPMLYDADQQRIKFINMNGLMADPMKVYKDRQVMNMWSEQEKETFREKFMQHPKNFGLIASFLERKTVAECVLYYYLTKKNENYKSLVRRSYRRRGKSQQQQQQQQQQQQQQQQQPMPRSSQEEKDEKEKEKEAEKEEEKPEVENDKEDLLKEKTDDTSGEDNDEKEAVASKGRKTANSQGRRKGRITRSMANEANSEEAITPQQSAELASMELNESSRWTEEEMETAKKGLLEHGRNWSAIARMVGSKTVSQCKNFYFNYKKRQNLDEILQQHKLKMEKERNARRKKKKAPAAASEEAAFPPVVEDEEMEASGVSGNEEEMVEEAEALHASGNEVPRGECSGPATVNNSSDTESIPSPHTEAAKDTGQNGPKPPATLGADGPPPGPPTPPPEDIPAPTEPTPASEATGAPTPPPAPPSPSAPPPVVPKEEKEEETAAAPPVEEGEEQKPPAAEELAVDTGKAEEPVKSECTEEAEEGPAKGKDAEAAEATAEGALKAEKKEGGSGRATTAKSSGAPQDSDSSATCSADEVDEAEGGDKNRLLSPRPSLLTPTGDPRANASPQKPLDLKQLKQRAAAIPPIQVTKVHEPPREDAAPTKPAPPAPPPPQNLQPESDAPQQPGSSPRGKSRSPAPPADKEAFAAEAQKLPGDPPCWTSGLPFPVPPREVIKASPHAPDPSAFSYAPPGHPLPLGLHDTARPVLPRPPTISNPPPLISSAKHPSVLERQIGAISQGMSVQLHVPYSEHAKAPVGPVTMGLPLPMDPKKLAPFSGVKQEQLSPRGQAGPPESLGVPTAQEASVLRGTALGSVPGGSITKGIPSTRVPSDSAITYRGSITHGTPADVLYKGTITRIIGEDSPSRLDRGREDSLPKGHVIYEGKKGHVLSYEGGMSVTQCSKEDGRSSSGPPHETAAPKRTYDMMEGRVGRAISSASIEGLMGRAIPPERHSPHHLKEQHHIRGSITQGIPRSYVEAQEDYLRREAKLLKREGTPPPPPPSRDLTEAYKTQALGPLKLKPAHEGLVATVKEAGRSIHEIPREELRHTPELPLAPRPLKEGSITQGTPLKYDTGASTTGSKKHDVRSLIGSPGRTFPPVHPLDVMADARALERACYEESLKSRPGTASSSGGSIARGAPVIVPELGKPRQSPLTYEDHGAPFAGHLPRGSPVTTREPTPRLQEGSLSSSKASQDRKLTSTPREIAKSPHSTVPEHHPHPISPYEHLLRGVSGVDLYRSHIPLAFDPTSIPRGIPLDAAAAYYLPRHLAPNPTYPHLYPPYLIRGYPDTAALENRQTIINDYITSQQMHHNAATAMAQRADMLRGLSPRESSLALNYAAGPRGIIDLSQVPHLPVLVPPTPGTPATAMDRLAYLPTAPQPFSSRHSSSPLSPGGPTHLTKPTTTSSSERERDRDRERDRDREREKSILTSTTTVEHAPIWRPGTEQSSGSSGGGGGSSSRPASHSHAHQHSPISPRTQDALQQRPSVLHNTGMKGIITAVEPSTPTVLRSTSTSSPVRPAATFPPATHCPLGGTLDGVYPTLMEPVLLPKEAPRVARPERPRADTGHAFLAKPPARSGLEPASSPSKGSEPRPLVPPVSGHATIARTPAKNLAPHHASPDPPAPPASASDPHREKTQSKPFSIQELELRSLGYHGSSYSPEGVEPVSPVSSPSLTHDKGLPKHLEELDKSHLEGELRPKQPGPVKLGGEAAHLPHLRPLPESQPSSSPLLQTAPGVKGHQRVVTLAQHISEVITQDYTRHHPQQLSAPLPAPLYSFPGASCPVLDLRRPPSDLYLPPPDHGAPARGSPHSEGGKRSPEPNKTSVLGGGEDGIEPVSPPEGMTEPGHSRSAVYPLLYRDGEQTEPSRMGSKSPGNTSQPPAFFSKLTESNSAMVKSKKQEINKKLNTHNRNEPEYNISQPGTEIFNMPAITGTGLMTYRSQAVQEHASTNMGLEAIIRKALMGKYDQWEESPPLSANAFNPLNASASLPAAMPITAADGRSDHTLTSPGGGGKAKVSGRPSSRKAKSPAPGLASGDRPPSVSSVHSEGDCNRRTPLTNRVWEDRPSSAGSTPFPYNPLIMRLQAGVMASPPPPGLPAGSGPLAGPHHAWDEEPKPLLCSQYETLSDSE
Method: as §1

[4] = test system: HDAC Class I; experiment: P21 reporter gene assay in HeLa cells; assay type: cell-based; details: relative to SAHA, 24 hours
Method: as §1

[5] = test system: total HDAC enzyme; experiment: In vitro inhibition of total HDAC enzyme activity (BIOMOL HDAC Fluorimetric Assay/Drug Discovery Kit, HeLa extract); assay type: biochemical
Method: Measurement of In Vitro Inhibition of Total HDAC Enzyme Activity:
The in vitro inhibition of total HDAC enzyme was determined by HDAC Fluorimetric Assay/Drug Discovery Kit (BIOMOL) according to manufacture's instruction. • 1. Add Assay buffer, diluted trichostatin A or test inhibitor to appropriate wells of the microtiter plate. Following table lists examples of various assay types and the additions required for each test.
• 2. Add diluted HeLa extract or other HDAC sample to all wells except those that are to be “No Enzyme Controls” (Blank). • 3. Allow diluted Fluor de LYS™ Substrate and the samples in the microtiter plate to equilibrate to assay temperature (25° C.). • 4. Initiate HDAC reactions by adding diluted substrate (25 μl) to each well and mixing thoroughly. • 5. Allow HDAC reactions to proceed for desired length of time and then stop them by addition of Fluor de Lys™ Developer (50 μl). Incubate plate at room temperature (25° C.) for 10-15 min. • 6. Read samples in a microtiter-plate reading fluorimeter capable of excitation at a wavelength in the range 350-380 nm and detection of emitted light in the range 440-460 nm. Measurement of In Vivo Inhibition of HDAC Subtype Activity: […]

[6] = test system: HL60; experiment: Cell proliferation (MTS), HL60; assay type: cell-based; details: Homo sapiens, HL-60, 72 hours
Method: (§2) Measurement of In Vivo Cell Proliferation:
(§3) Tumor cells were trypsinized and plated into 96-well plates at 3,000 per well and incubated in complete medium with 10% FBS for 24 hours. Compounds were added over a final concentration range of 100 μmol/L to 100 nmol/L in 0.1% DMSO and incubated for 72 hours in complete medium. The effects on proliferation were determined by addition of MTS reagent (Promega) according to the instruction, incubation for 2 hours at 37° C. in CO2 incubator, and record the absorbance at 490 nm using an ELISA plate reader.

[7] = test system: Hut-78; experiment: Cell proliferation (MTS), Hut-78; assay type: cell-based; details: Homo sapiens, HuT78, 72 hours
Method: as §2, §3

[8] = test system: HeLa; experiment: Cell proliferation (MTS), HeLa; assay type: cell-based; details: Homo sapiens, 72 hours
Method: as §2, §3

[9] = test system: A549; experiment: Cell proliferation (MTS), A549; assay type: cell-based; details: Homo sapiens, 72 hours
Method: as §2, §3

activation at 10 µM [1] | activation at 10 µM [3] | % of Inhibition on total HDAC enzyme at 30 μM [5] | Structure (SMILES) | % of SAHA Response for HDAC4/5 at 10 μM (MEF2 reporter gene) [2] | % of SAHA Response for HDAC Class I at 10 μM (P21 reporter gene) [4] | GI50 [6] | GI50 [7] | GI50 [8] | GI50 [9] | % of SAHA Response for HDAC7 at 10 μM (Nur77 reporter gene) [1] | % of SAHA Response for HDAC3 at 10 μM (gdf11 reporter gene) ([3]; 10 μM, relative to SAHA, HeLa cells, 24 hours)
19% | 36% | 42% | Nc1ccccc1NC(=O)CCCCNC(=O)C=C1c2ccccc2-c2ccccc21 [Example 7, 5-(2-(9H-fluoren-9-ylidene)acetamido)-N-(2-aminophenyl)pentanamide] | 31% | 49% | – | – | – | – | – | –
7% | 10% | 31.7% | Nc1cc(F)ccc1NC(=O)CCCCNC(=O)C=C1c2ccccc2-c2ccccc21 [Example 8, 5-(2-(9H-fluoren-9-ylidene)acetamido)-N-(2-amino-4-fluorophenyl)pentanamide] | 30% | 16% | – | – | – | – | – | –
4% | 6% | – | Nc1cc(Cl)ccc1NC(=O)CCCCCNC(=O)C=C1c2ccccc2-c2ccccc21 [Example 14, 6-(2-(9H-fluoren-9-ylidene)acetamido)-N-(2-amino-4-chlorophenyl)hexanamide] | 9% | 13% | – | – | – | – | – | –
4% | 14% | 42.4% | Cc1ccc(NC(=O)CCCCCNC(=O)C=C2c3ccccc3-c3ccccc32)c(N)c1 [Example 15, 6-(2-(9H-fluoren-9-ylidene)acetamido)-N-(2-amino-4-methylphenyl)hexanamide] | 15% | 21% | – | – | – | – | – | –
10% | 12% | 29.2% | COc1ccc(NC(=O)CCCCCNC(=O)C=C2c3ccccc3-c3ccccc32)c(N)c1 [Example 16, 6-(2-(9H-fluoren-9-ylidene)acetamido)-N-(2-amino-4-methoxyphenyl)hexanamide] | 27% | 21% | – | – | – | – | – | –
7% | 7% | 24.1% | Nc1cc(C(F)(F)F)ccc1NC(=O)CCCCCNC(=O)C=C1c2ccccc2-c2ccccc21 [Example 17, 6-(2-(9H-fluoren-9-ylidene)acetamido)-N-(2-amino-4-trifluoromethylphenyl)hexanamide] | 21% | 12% | – | – | – | – | – | –
89% | 70% | 99.3% | O=C(C=C1c2ccccc2-c2ccccc21)NCCCCCCCC(=O)NO [Example 26, 8-(2-(9H-fluoren-9-ylidene)acetamido)-N-hydroxyoctanamide] | 87% | 61% | – | – | – | – | – | –
7% | 12% | 42.3% | Nc1cc(F)ccc1NC(=O)CCCCCCCNC(=O)C=C1c2ccccc2-c2ccccc21 [Example 27, 8-(2-(9H-fluoren-9-ylidene)acetamido)-N-(2-amino-4-fluorophenyl)octanamide] | 16% | 18% | – | – | – | – | – | –
20% | 33% | 48% | Nc1ccccc1NC(=O)CCCCCCCNC(=O)C=C1c2ccccc2-c2ccccc21 [Example 28, 8-(2-(9H-fluoren-9-ylidene)acetamido)-N-(2-aminophenyl)octanamide] | 38% | 62% | – | – | – | – | – | –
– | – | – | O=C(CCCCCCC(=O)Nc1ccccc1)NO [SAHA, suberoylanilide hydroxamic acid, reference compound] | 100% | 100% | – | – | – | – | 100% | 100%

Structure (SMILES) | activation at 10 µM [1] | activation at 10 µM [3] | % of Inhibition on total HDAC enzyme at 30 μM [5] | % of SAHA Response for HDAC4/5 at 10 μM (MEF2 reporter gene) [2] | % of SAHA Response for HDAC Class I at 10 μM (P21 reporter gene) [4] | GI50 [6] | GI50 [7] | GI50 [8] | GI50 [9] | % of SAHA Response for HDAC7 at 10 μM (Nur77 reporter gene) [1] | % of SAHA Response for HDAC3 at 10 μM (gdf11 reporter gene) ([3]; 10 μM, relative to SAHA, HeLa cells, 24 hours)
O=C(C=C1c2ccccc2-c2ccccc21)NCCCCCC(=O)NO [Example 11, 6-(2-(9H-fluoren-9-ylidene)acetamido)-N-hydroxyhexanamide] | – | – | 99% | – | 77% | < 0.1 µM | < 0.1 µM | 0.52 µM | 2.34 µM | – | –
